Laboratory results published in ChEMBL document CHEMBL4177601, “Dual antioxidant structures with potent anti-inflammatory, hypolipidemic and cytoprotective properties” (Bioorg Med Chem Lett, 2017).
Calls of active or inactive are those of the source. The calls are words filed in the database; no cut-off is given here.

Key:
Mus musculus = assay: Anti-inflammatory activity in Balb/C mouse assessed as reduction in carrageenan-induced hind paw oedema at 0.15 mmol/kg, ip pretreated for 1 hr followed by carrageenan challenge; assay type: functional; set-up: scale not given: the % may be the effect or the level left
Liver [1] = assay: Antioxidant activity in rat hepatic microsomes assessed as inhibition of FeSO4-induced lipid peroxidation at 1 to 1000 uM measured after 45 mins by spectrophotometry; assay type: functional; conditions: microsome
[2] = Antioxidant activity assessed as DPPH radical scavenging activity at 25 to 200 uM measured after 30 mins; assay type: functional
[3] = Antioxidant activity assessed as DPPH radical scavenging activity at 200 uM measured after 30 mins relative to control; assay type: functional
Rattus norvegicus [4] = assay: Anti-inflammatory activity in rat assessed as reduction in carrageenan-induced hind paw oedema at 0.15 mmol/kg, ip pretreated for 5 mins followed by carrageenan challenge measured after 3.5 hrs; assay type: functional; set-up: scale not given: the % may be the effect or the level left
[5] = Antioxidant activity assessed as DPPH radical scavenging activity at 100 uM measured after 30 mins relative to control; assay type: functional
[6] = Antioxidant activity assessed as DPPH radical scavenging activity at 50 uM measured after 30 mins relative to control; assay type: functional
Liver [7] = assay: Antioxidant activity in rat hepatic microsomes assessed as inhibition of FeSO4-induced lipid peroxidation measured after 45 mins by spectrophotometry; assay type: functional, microsome; conditions: 0.75 h
Lipoxygenase = Lipoxygenase (Glycine max, UniProt Q39829); assay: Inhibition of soybean lipoxygenase using sodium linoleate as substrate measured after 7 mins
Rattus norvegicus [8] = assay: Hypolipidemic activity in triton WR1339-induced rat model of hyperlipidemia assessed as reduction in plasma total cholesterol level at 150 umol/kg, ip administered after 1 hr post triton WR1339 challenge measured after 24 hrs relative to control; assay type: functional; set-up: scale not given: the % may be the effect or the level left
Rattus norvegicus [9] = assay: Hypolipidemic activity in triton WR1339-induced rat model of hyperlipidemia assessed as reduction in plasma total triglyceride level at 150 umol/kg, ip administered after 1 hr post triton WR1339 challenge measured after 24 hrs relative to control; assay type: functional; set-up: scale not given: the % may be the effect or the level left
Liver [10] = assay: Potency index, ratio of trolox IC50 to test compound IC50 for inhibition FeSO4-induced lipid peroxidation in rat hepatic microsomes; assay type: functional; conditions: microsome
Rattus norvegicus [11] = assay: Protection against paracetamol-induced liver injury in rat assessed as reduction in plasma LDH level at 1 mmol/kg, po measured at 24 hrs post paracetamol challenge relative to control; assay type: functional; set-up: scale not given: the % may be the effect or the level left
Rattus norvegicus [12] = assay: Protection against paracetamol-induced liver injury in rat assessed as reduction in plasma GPT level at 1 mmol/kg, po measured at 24 hrs post paracetamol challenge relative to control; assay type: functional; set-up: scale not given: the % may be the effect or the level left
Rattus norvegicus [13] = assay: Protection against paracetamol-induced liver injury in rat assessed as reduction in plasma GOT level at 1 mmol/kg, po measured at 24 hrs post paracetamol challenge relative to control; assay type: functional; set-up: scale not given: the % may be the effect or the level left

| Compound | inhibition (Liver [1]) | Activity [3] | Activity (Rattus norvegicus [4]) | Activity [5] | Activity [6] | IC50 (Liver [7]) | other results |
| --- | --- | --- | --- | --- | --- | --- | --- |
| CCOC(=O)[C@@H](N)CS | – | – | – | – | – | – | Activity (Mus musculus): 25% |
| CCOC(=O)C(CSSCC(NC(=O)/C=C/c1ccccc1)C(=O)OCC)NC(=O)/C=C/c1ccccc1 (stereo unspecified) | inactive | – | – | – | – | – | Activity [2]: Active |
| O=C(/C=C/c1ccccc1)NCCS | inactive | 86% | 38% | 59% | 31% | – | – |
| CC(C)(C)c1cc(C(=O)NCCS)cc(C(C)(C)C)c1O | – | 85% | 87% | 45% | 20% | 45 µM | IC50 (Lipoxygenase): 121 µM |
| CCOC(=O)C(CS)NC(=O)c1cc(C(C)(C)C)c(O)c(C(C)(C)C)c1 (stereo unspecified) | – | 85% | 59% | 46% | 23% | 200 µM | IC50 (Lipoxygenase): 67 µM |
| CCOC(=O)C(CS)NC(=O)/C=C/c1ccccc1 (stereo unspecified) | inactive | 86% | 35% | 42% | 27% | – | – |
| CC(C)(C)c1cc(/C=C/C(=O)NCCS)cc(C(C)(C)C)c1O | – | 92% | 67% | 60% | 34% | 30 µM | IC50 (Lipoxygenase): 160 µM |
| NCCS [CYSTEAMINE] | – | – | – | – | – | – | Activity (Mus musculus): 15% |
| O=C(/C=C/c1ccccc1)NCCSSCCNC(=O)/C=C/c1ccccc1 | inactive | – | 42% | – | – | – | Activity [2]: Active |
| CC(C)Cc1ccc(C(C)C(=O)O)cc1 (stereo unspecified) [IBUPROFEN] | – | – | 36% | – | – | – | – |
| CC(C)(C)c1cc(C(=O)O)cc(C(C)(C)C)c1O | – | – | – | – | – | 250 µM | – |
| CCOC(=O)C(CS)NC(=O)/C=C/c1cc(C(C)(C)C)c(O)c(C(C)(C)C)c1 (stereo unspecified) | – | 96% | 61% | 70% | 37% | 40 µM | IC50 (Lipoxygenase): 135 µM |
| CC(C)(C)c1cc(C(=O)NCCSSCCNC(=O)c2cc(C(C)(C)C)c(O)c(C(C)(C)C)c2)cc(C(C)(C)C)c1O | inactive | – | – | – | – | – | Activity [2]: Active |
| Cc1c(C)c2c(c(C)c1O)CCC(C)(C(=O)O)O2 (stereo unspecified) [TROLOX] | – | – | – | – | – | 25 µM | – |
| Cc1c(C)c2c(c(C)c1O)CCC(C)(C(=O)NCCS)O2 (stereo unspecified) | – | 93% | 67% | 92% | 61% | 1.6 µM | Activity (Rattus norvegicus [8]): 67.1%; Activity (Rattus norvegicus [9]): 47.3%; Ratio IC50 (Liver [10]): 10; Activity (Rattus norvegicus [11]): 70%; Activity (Rattus norvegicus [12]): 15%; Activity (Rattus norvegicus [13]): 26% |
| CCOC(=O)C(CS)NC(=O)C1(C)CCc2c(C)c(O)c(C)c(C)c2O1 (stereo unspecified) | – | 93% | 39% | 91% | 61% | 3 µM | Activity (Rattus norvegicus [8]): 73%; Activity (Rattus norvegicus [9]): 72.3%; Ratio IC50 (Liver [10]): 10; Activity (Rattus norvegicus [11]): 78%; Activity (Rattus norvegicus [12]): 64%; Activity (Rattus norvegicus [13]): 70% |
| CCOC(=O)C(CSSCC(NC(=O)c1cc(C(C)(C)C)c(O)c(C(C)(C)C)c1)C(=O)OCC)NC(=O)c1cc(C(C)(C)C)c(O)c(C(C)(C)C)c1 (stereo unspecified) | inactive | – | 36% | – | – | – | Activity [2]: Active |
